We go through 33 molecules from US20110082130A1 (LIGAND PHARMACEUTICALS, INC., priority 2006, published 2011).

A word on the Ki: it is the dissociation constant of the complex between target and ligand, obtained from inhibition or displacement.

The target in the first assay is T1, chimeric human H3 receptor (Homo sapiens, UniProt Q9Y5N1).
T1 construct: made in house; host or cells: Sf9 insect cells (baculovirus); P2 membrane preparation
T1 sequence (Q9Y5N1 with tags, fused parts or gaps): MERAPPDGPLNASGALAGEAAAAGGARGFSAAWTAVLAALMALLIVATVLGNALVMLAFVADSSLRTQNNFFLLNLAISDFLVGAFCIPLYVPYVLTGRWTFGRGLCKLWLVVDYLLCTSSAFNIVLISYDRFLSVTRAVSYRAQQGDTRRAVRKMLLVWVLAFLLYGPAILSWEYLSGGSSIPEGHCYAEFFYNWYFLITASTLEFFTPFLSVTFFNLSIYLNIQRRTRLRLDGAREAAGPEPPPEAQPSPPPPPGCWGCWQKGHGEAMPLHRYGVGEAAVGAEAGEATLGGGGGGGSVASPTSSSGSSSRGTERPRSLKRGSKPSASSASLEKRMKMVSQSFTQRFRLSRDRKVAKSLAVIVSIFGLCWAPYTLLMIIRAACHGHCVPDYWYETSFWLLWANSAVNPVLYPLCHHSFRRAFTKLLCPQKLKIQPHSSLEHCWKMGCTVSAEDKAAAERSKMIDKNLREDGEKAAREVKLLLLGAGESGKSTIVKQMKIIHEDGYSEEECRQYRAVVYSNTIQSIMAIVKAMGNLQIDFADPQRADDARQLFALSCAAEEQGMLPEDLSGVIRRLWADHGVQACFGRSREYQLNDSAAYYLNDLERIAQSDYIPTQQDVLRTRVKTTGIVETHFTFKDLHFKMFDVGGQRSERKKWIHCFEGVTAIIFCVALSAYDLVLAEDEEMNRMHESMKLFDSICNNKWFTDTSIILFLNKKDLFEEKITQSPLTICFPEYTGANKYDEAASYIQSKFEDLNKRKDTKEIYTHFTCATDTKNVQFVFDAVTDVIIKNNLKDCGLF
Description: Chimeric human H3 receptor GTP binding assay (agonist-stimulated GTP-gamma35S binding, Example 7). Particulars: Table I; P2 membranes of Sf9 cells, 1 μM histamine as agonist, Ki from IC50 by Cheng-Prusoff. It is filed as biochemical. The gist of the method: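 Sf9 membranes co-expressing chimeric human H3 receptor and heterotrimeric G-protein, 35 μg/tube, in pH 7.4 Tris buffer with 10 μM GDP. Test compounds (10^−10–10^−6 M) competed against 1 μM histamine, […] GTP-gamma35S, 60 min at room temperature. Filter-bound radioactivity counted; IC50 converted to Ki by Cheng-Prusoff. Agonism/inverse agonism tested without histamine (EC50).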
On the technique in general: GTPγS is a poorly hydrolysed GTP analogue; its binding reports G protein activation.
Consider `COc1ccc(-c2ncc3c(n2)CCN(CC(=O)N2CCN(C4CCC4)CC2)C3)cc1` [Compound 76, 6-[2-(4-cyclobutylpiperazin-1-yl)-2-oxoethyl]-2-(4-methoxyphenyl)-5,6,7,8-tetrahydropyrido[4,3-d]pyrimidine], for which the inhibitory constant (Ki) was under 1000 nM.
Still for that read-out and setting: the result for `CC(C)N1CCN(C(=O)CN2CCc3ccccc3C2Cc2ccccc2)CC1` (stereo not drawn) [Compound 55, 1-benzyl-2-[2-(4-isopropylpiperazin-1-yl)-2-oxoethyl]-1,2,3,4-tetrahydroisoquinoline] reads under 1000 nM.

The assay is the same for the next values; noted with them: Table II "Ki", symbol *; assay of Example 7.
For `Cc1ccc(-c2ccc3c(c2)CCN(CC(=O)N2CCN(C4CCC4)CC2)C3)nc1` [Compound 629, 2-[2-(4-cyclobutylpiperazin-1-yl)-2-oxoethyl]-6-(5-methylpyridin-2-yl)-1,2,3,4-tetrahydroisoquinoline], the Ki is under 1000 nM.
For `COc1cc(F)c(-c2ccc3c(c2)CCN(CC(=O)N2CCN(C4CCCC4)CC2)C3)cc1F` [Compound 507, 2-[2-(4-cyclopentylpiperazin-1-yl)-2-oxoethyl]-6-(2,5-difluoro-4-methoxyphenyl)-1,2,3,4-tetrahydroisoquinoline], the Ki was under 1000 nM.
With `COc1ccc(-c2ccc3c(c2)CCN(CC(=O)N2CCN(C4CCCC4)CC2)C3)cc1F` [Compound 503, 2-[2-(4-cyclopentylpiperazin-1-yl)-2-oxoethyl]-6-(3-fluoro-4-methoxyphenyl)-1,2,3,4-tetrahydroisoquinoline], the Ki is under 1000 nM.
On the same count and under the same terms, the result for `O=C(CN1CCc2nc(NC3CCCC3)ccc2C1)N1CCN(C2CCC2)CC1` [Compound 656, 6-[2-(4-cyclobutylpiperazin-1-yl)-2-oxoethyl]-N-cyclopentyl-5,6,7,8-tetrahydro-1,6-naphthyridin-2-amine] reads under 1000 nM; that for `O=C(CN1CCc2cc(-c3nccc(C(F)(F)F)n3)ccc2C1)N1CCN(C2CCC2)CC1` [Compound 636, 2-[2-(4-cyclobutylpiperazin-1-yl)-2-oxoethyl]-6-[4-(trifluoromethyl)pyrimidin-2-yl]-1,2,3,4-tetrahydroisoquinoline], under 1000 nM.
Still for that read-out and setting: under `COC1CCN(c2ccc3c(n2)CCN(CC(=O)N2CCN(C4CCC4)CC2)C3)CC1` [Compound 681, 6-[2-(4-cyclobutylpiperazin-1-yl)-2-oxoethyl]-2-(4-methoxypiperidin-1-yl)-5,6,7,8-tetrahydro-1,6-naphthyridine] stands under 1000 nM; under `COc1ccc2cc(-c3ccc4c(c3)CCN(CC(=O)N3CCN(C5CCC5)CC3)C4)ccc2c1` [Compound 509, 2-[2-(4-cyclobutylpiperazin-1-yl)-2-oxoethyl]-6-(6-methoxy-2-naphthyl)-1,2,3,4-tetrahydroisoquinoline], under 1000 nM; under `O=C(CN1CCc2cc(-c3cccc4[nH]ccc34)ccc2C1)N1CCN(C2CCC2)CC1` [Compound 639, 2-[2-(4-cyclobutylpiperazin-1-yl)-2-oxoethyl]-6-(1H-indol-4-yl)-1,2,3,4-tetrahydroisoquinoline], under 1000 nM.

Staying with this assay, now noted: Table II; "*" = Ki in assay of Example 7 less than 1 micromolar.
In the case of `O=C(CN1CCc2cc(-c3ccccn3)ccc2C1)N1CCN(C2CCC2)CC1` [Compound 130, 2-[2-(4-cyclobutylpiperazin-1-yl)-2-oxoethyl]-6-pyridin-2-yl-1,2,3,4-tetrahydroisoquinoline], the Ki is under 1000 nM.
Take `O=C(CN1CCc2cc(-c3cncnc3)ccc2C1)N1CCN2CCCCC2C1` (stereo not drawn) [Compound 151, 2-[(6-pyrimidin-5-yl-3,4-dihydroisoquinolin-2(1H)-yl)acetyl]octahydro-2H-pyrido[1,2-a]pyrazine]: the Ki was under 1000 nM.
For `O=C(CN1CCc2cc(-n3cccnc3=O)ccc2C1)N1CCN(C2CCC2)CC1` [Compound 213, 1-{2-[2-(4-cyclobutylpiperazin-1-yl)-2-oxoethyl]-1,2,3,4-tetrahydroisoquinolin-6-yl}pyrimidin-2(1H)-one], the Ki is under 1000 nM.
Regarding `CN(C)c1ncc2c(n1)CCN(CC(=O)N1CCN(C3CCC3)CC1)C2` [Compound 246, 6-[2-(4-cyclobutylpiperazin-1-yl)-2-oxoethyl]-N,N-dimethyl-5,6,7,8-tetrahydropyrido[4,3-d]pyrimidin-2-amine], the Ki was under 1000 nM.
In the case of `O=C(CN1CCc2cc(Br)ccc2C1)N1CCN2CCCCC2C1` (stereo not drawn) [Compound 148, 2-[(6-bromo-3,4-dihydroisoquinolin-2(1H)-yl)acetyl]octahydro-2H-pyrido[1,2-a]pyrazine], the inhibitory constant (Ki) was under 1000 nM.
On the same count and under the same terms, the result for `CC(=O)c1ccc2c(c1)CCN(CC(=O)N1CCN(C(C)C)CC1)C2` [Compound 141, 1-{2-[2-(4-isopropylpiperazin-1-yl)-2-oxoethyl]-1,2,3,4-tetrahydroisoquinolin-6-yl}ethanone] reads under 1000 nM; that for `O=C(CN1CCc2nc(N3CCOCC3)ncc2C1)N1CCN(C2CCC2)CC1` [Compound 139, 6-[2-(4-cyclobutylpiperazin-1-yl)-2-oxoethyl]-2-morpholin-4-yl-5,6,7,8-tetrahydropyrido[4,3-d]pyrimidine], under 1000 nM; that for `O=C(CN1CCc2cc(O)ccc2C1)N1CCN(C2CCC2)CC1` [Compound 195, 2-[2-(4-cyclobutylpiperazin-1-yl)-2-oxoethyl]-1,2,3,4-tetrahydroisoquinolin-6-ol], under 1000 nM.
The same measure, in the same setting: the result for `O=C(CN1CCc2[nH]c(=O)ccc2C1)N1CCN(C2CCC2)CC1` [Compound 134, 6-[2-(4-cyclobutylpiperazin-1-yl)-2-oxoethyl]-5,6,7,8-tetrahydro-1,6-naphthyridin-2(1H)-one] reads under 1000 nM.
On the same count and under the same terms, under `O=C(CN1CCc2nc(N3CCOCC3)cnc2C1)N1CCN(C2CCC2)CC1` [Compound 240, 6-[2-(4-cyclobutylpiperazin-1-yl)-2-oxoethyl]-2-morpholin-4-yl-5,6,7,8-tetrahydropyrido[3,4-b]pyrazine] stands under 1000 nM; under `CC(C)N1CCN(C(=O)CN2CCc3[nH]c(=O)ccc3C2)CC1` [Compound 135, 6-[2-(4-isopropylpiperazin-1-yl)-2-oxoethyl]-5,6,7,8-tetrahydro-1,6-naphthyridin-2(1H)-one], under 1000 nM; under `O=C(CN1CCc2cc(-c3cnccn3)ccc2C1)N1CCN(C2CCC2)CC1` [Compound 128, 2-[2-(4-cyclobutylpiperazin-1-yl)-2-oxoethyl]-6-pyrazin-2-yl-1,2,3,4-tetrahydroisoquinoline], under 1000 nM.

The assay is the same for the next values; noted with them: Table II; assay of Example 7.
As for `N#Cc1ccc(-c2ncc3c(n2)CCN(CC(=O)N2CCN(C4CCC4)CC2)C3)cc1` [Compound 683, 4-{6-[2-(4-cyclobutylpiperazin-1-yl)-2-oxoethyl]-5,6,7,8-tetrahydropyrido[4,3-d]pyrimidin-2-yl]benzonitrile], the inhibition constant Ki is under 1000 nM.

The same assay, now with this note: assay of Example 7; "*" in Ki of Table II.
For `O=C(CN1CCc2nc(-c3ccc(Oc4ccccc4)cc3)sc2C1)N1CCN(C2CCC2)CC1` [Compound 318, 5-[2-(4-cyclobutylpiperazin-1-yl)-2-oxoethyl]-2-(4-phenoxyphenyl)-4,5,6,7-tetrahydro[1,3]thiazolo [5,4-c]pyridine], the inhibitory constant (Ki) is under 1000 nM.
As for `O=C(CN1CCc2cc(-c3cncnc3)ccc2C1)N1CCN(C2CCCCC2)CC1` [Compound 393, 2-[2-(4-cyclohexylpiperazin-1-yl)-2-oxoethyl]-6-pyrimidin-5-yl-1,2,3,4-tetrahydroisoquinoline], the Ki was under 1000 nM.
On the same count and under the same terms, under `O=C(CN1CCc2nc(-c3cccc(Cl)c3)sc2C1)N1CCN(C2CCC2)CC1` [Compound 295, 2-(3-chlorophenyl)-5-[2-(4-cyclobutylpiperazin-1-yl)-2-oxoethyl]-4,5,6,7-tetrahydro[1,3]thiazolo [5,4-c]pyridine] stands under 1000 nM; under `O=C(CN1CCc2cc(-c3ccc4c(c3)OCO4)ccc2C1)N1CCN(C2CCCC2)CC1` [Compound 378, 6-(1,3-benzodioxol-5-yl)-2-[2-(4-cyclopentylpiperazin-1-yl)-2-oxoethyl]-1,2,3,4-tetrahydroisoquinoline], under 1000 nM; under `CCc1ccc(-c2nc3c(s2)CN(CC(=O)N2CCN(C4CCC4)CC2)CC3)cc1` [Compound 311, 5-[2-(4-cyclobutylpiperazin-1-yl)-2-oxoethyl]-2-(4-ethylphenyl)-4,5,6,7-tetrahydro[1,3]thiazolo [5,4-c]pyridine], under 1000 nM.
Turning to `O=C(CN1CCc2nc(-c3ccc(F)c(F)c3)sc2C1)N1CCN(C2CCC2)CC1` [Compound 349, 5-[2-(4-cyclobutylpiperazin-1-yl)-2-oxoethyl]-2-(3,4-difluorophenyl)-4,5,6,7-tetrahydro[1,3]thiazolo [5,4-c]pyridine], the inhibition constant (Ki) is under 1000 nM.
Consider `O=C(CN1CCc2nc(-c3ccc(Cl)cc3Cl)sc2C1)N1CCN(C2CCC2)CC1` [Compound 359, 5-[2-(4-cyclobutylpiperazin-1-yl)-2-oxoethyl]-2-(2,4-dichlorophenyl)-4,5,6,7-tetrahydro[1,3]thiazolo [5,4-c]pyridine], for which the Ki was under 1000 nM.
As for `O=C(CN1CCc2nc(-c3ccc(Cl)c(C(F)(F)F)c3)sc2C1)N1CCN(C2CCC2)CC1` [Compound 373, 2-[4-chloro-3-(trifluoromethyl)phenyl]-5-[2-(4-cyclobutylpiperazin-1-yl)-2-oxoethyl]-4,5,6,7-tetrahydro[1,3]thiazolo [5,4-c]pyridine], the inhibition constant Ki is under 1000 nM.
On the same count and under the same terms, the result for `O=C(CN1CCc2nc(-c3cc(C(F)(F)F)cc(C(F)(F)F)c3)sc2C1)N1CCN(C2CCC2)CC1` [Compound 371, 2-[3,5-bis(trifluoromethyl)phenyl]-5-[2-(4-cyclobutylpiperazin-1-yl)-2-oxoethyl]-4,5,6,7-tetrahydro[1,3]thiazolo [5,4-c]pyridine] reads under 1000 nM.
On to `O=C(CN1CCc2nc(-c3ccc(F)cc3F)sc2C1)N1CCN(C2CCC2)CC1` [Compound 348, 5-[2-(4-cyclobutylpiperazin-1-yl)-2-oxoethyl]-2-(2,4-difluorophenyl)-4,5,6,7-tetrahydro[1,3]thiazolo [5,4-c]pyridine], for which the Ki is under 1000 nM.
